Experimental data taken from US20190183798A1, “METHOD FOR TREATING TUMOR” (Johnpro Biotech Inc., priority 2016, published 2019).

Columns and labels:
HepG2 cells [1] = experiment: Absorption/retention of lipo-dox in HepG2 cells under specified treatments (flow cytometry, confocal microscopy); conditions: 37° C., 42° C. and mEHT treatments compared
HepG2 cells [2] = experiment: Absorption of dextran, CT-B or transferrin in HepG2 cells under specified treatments (flow cytometry), with or without wortmannin; type: cell-based
Protocol: In the treatment of wortmannin, an inhibitor of macropinocytosis pathway, the HepG2 cells were treated with phosphate-buffered saline (PBS) or wortmannin at 37° C. for 15 minutes. After the administration of dextran, the cells were applied with 37° C. treatment, 42° C. treatment or mEHT treatment for 1 hour.
The cells were analyzed by flow cytometry.

COc1cccc2c1C(=O)c1c(O)c3c(c(O)c1C2=O)C[C@@](O)(C(=O)CO)C[C@@H]3O[C@H]1C[C@H](N)[C@H](O)[C@H](C)O1 [dox, doxorubicin]
Enhancement of the absorption of dox without liposome encapsulation (HepG2 cells [1]): no obvious difference among the tested treatments

CT-B: particle about 100 nm used as tested drug for endocytosis uptake
Absorption of CT-B by the cell compared with control group (HepG2 cells [2]; all treatment groups (37° C., 42° C. and mEHT), 2 μg/ml CT-B): enhanced absorption

dextran
Absorption of dextran to the cells compared with control group (HepG2 cells [2]; all treatment groups (37° C., 42° C. and mEHT), 1 mg/ml dextran): enhanced absorption
Fluorescence signal of dextran in cells treated with mEHT (HepG2 cells [2]; mEHT treatment versus 37° C. and 42° C. treatments): highest fluorescence signals

transferrin
Absorption of transferrin by the cell compared with control group (HepG2 cells [2]; all treatment groups (37° C., 42° C. and mEHT), 5 μg/ml transferrin): enhanced absorption
